Assay results published in ChEMBL document CHEMBL1201862, “PubChem BioAssay data set” (2004).
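Values below derive from 48-hour exposures of cells grown in 96-well plates, with endpoints linearly interpolated between the two concentrations bracketing the appropriate inhibition level. GI50 = concentration required for 50% inhibition of growth.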 Activity calls are given as the source filed them. No stated cut-off is given here; in the data, active = GI50 up to about 1.1 µM and inactive = higher. Residues, ends and D or L forms follow the SMILES beside them. *: point of attachment. Boc = CC(C)(C)OC(=O)*

Columns and labels:
Assay in all cases: inhibition of tumour cell growth, NCI panel, 48 h
[1] = test system: SNB-75
[2] = test system: SW-620
[3] = test system: MDA-N
[4] = test system: SR
[5] = test system: NCI-H226
[6] = test system: M14
[7] = test system: IGROV-1
[8] = test system: LOX IMVI
[9] = test system: PC-3
[10] = test system: OVCAR-5
[11] = test system: A498
[12] = test system: SF-539
[13] = test system: ACHN
[14] = test system: 786-0
[15] = test system: SF-295
[16] = test system: RXF 393
[17] = test system: UACC-62
[18] = test system: UO-31
[19] = test system: HOP-62
[20] = test system: HOP-92

SMILES	GI50 [1]	GI50 [2]	GI50 [3]	GI50 [4]	GI50 [5]	GI50 [6]	GI50 [7]	GI50 [8]	GI50 [9]	GI50 [10]	GI50 [11]	GI50 [12]	GI50 [13]	GI50 [14]	GI50 [15]	GI50 [16]	GI50 [17]	GI50 [18]	GI50 [19]	GI50 [20]
COc1cc2c(c(OC)c1OC)-c1ccc(OC)c(=O)cc1C(NC(=O)CCCCCNc1ccc(N=[N+]=[N-])cc1[N+](=O)[O-])CC2 (stereo not given)	0.246 µM (active)	< 0.01 µM (active)	< 0.01 µM (active)	< 0.01 µM (active)	< 0.01 µM (active)	< 0.01 µM (active)	< 0.01 µM (active)	< 0.01 µM (active)	< 0.01 µM (active)	< 0.01 µM (active)	< 0.01 µM (active)	< 0.01 µM (active)	0.0271 µM (active)	< 0.01 µM (active)	< 0.0118 µM (active)	< 0.01 µM (active)	< 0.01 µM (active)	1.47 µM (inactive)	< 0.01 µM (active)	
Cc1oc2c(cc(O)c3cc(O)ccc32)c2cccc1-2	> 100 µM (inactive)	> 100 µM (inactive)	> 100 µM (inactive)	37 µM (inactive)		> 100 µM (inactive)	> 100 µM (inactive)	> 100 µM (inactive)	> 100 µM (inactive)	> 100 µM (inactive)	> 100 µM (inactive)	> 100 µM (inactive)	> 100 µM (inactive)	> 100 µM (inactive)	> 100 µM (inactive)	> 100 µM (inactive)	> 100 µM (inactive)	> 100 µM (inactive)	> 100 µM (inactive)	> 100 µM (inactive)
COc1ccc(C(OCC2OC(n3ccc(NC(=O)c4ccccc4)nc3=O)C(O)C2O)(c2ccccc2)c2ccccc2)cc1 (stereo not given)	9.55 µM (inactive)	3.13 µM (inactive)	1.92 µM (inactive)	2.39 µM (inactive)	2.61 µM (inactive)	2.03 µM (inactive)	2.08 µM (inactive)		3.09 µM (inactive)	2 µM (inactive)	1.62 µM (inactive)	2.34 µM (inactive)	2.9 µM (inactive)	2.12 µM (inactive)	1.95 µM (inactive)	2.97 µM (inactive)	8.26 µM (inactive)	3.42 µM (inactive)	2.34 µM (inactive)	
Nc1nc(O)nc2snnc12	5.28 µM (inactive)	5.4 µM (inactive)	8.28 µM (inactive)	9.46 µM (inactive)	> 36.1 µM (inactive)	7.35 µM (inactive)	> 100 µM (inactive)	2.92 µM (inactive)	> 100 µM (inactive)	> 100 µM (inactive)		15.9 µM (inactive)	> 100 µM (inactive)	6.38 µM (inactive)	33.2 µM (inactive)	4.66 µM (inactive)	7.26 µM (inactive)	3.99 µM (inactive)	8.07 µM (inactive)	20.3 µM (inactive)
O=C1CC(Nc2ccccc2)c2c(Cl)sc(Cl)c21 (stereo not given)	2.31 µM (inactive)	0.369 µM (active)	1.65 µM (inactive)	0.52 µM (active)	8.65 µM (inactive)	1.66 µM (inactive)	1.61 µM (inactive)	0.39 µM (active)	1.49 µM (inactive)	2.34 µM (inactive)	2.5 µM (inactive)	0.527 µM (active)	1.18 µM (inactive)	0.234 µM (active)	5.11 µM (inactive)		1.32 µM (inactive)	1.11 µM (active)	2.57 µM (inactive)	1.41 µM (inactive)
COC(=O)C1=C(C(=O)OC)SC(=C2c3ccsc3-c3sccc32)S1	15.9 µM (inactive)	69 µM (inactive)	70.3 µM (inactive)	34 µM (inactive)	27.4 µM (inactive)	36.6 µM (inactive)	40.6 µM (inactive)	> 100 µM (inactive)	47 µM (inactive)	> 100 µM (inactive)	24.5 µM (inactive)	20.7 µM (inactive)	74.8 µM (inactive)	21.4 µM (inactive)	17.6 µM (inactive)	18.3 µM (inactive)	26.6 µM (inactive)	99.1 µM (inactive)	19.7 µM (inactive)	
Cc1c2cccc-2c(N(C)C)cc2c1[nH]c1ccccc12		4.17 µM (inactive)	6.56 µM (inactive)	1.58 µM (inactive)	5.81 µM (inactive)	5.32 µM (inactive)	1.89 µM (inactive)	3.94 µM (inactive)	1.42 µM (inactive)	3.23 µM (inactive)	21 µM (inactive)	2.11 µM (inactive)	3.19 µM (inactive)	2.97 µM (inactive)	10.4 µM (inactive)			2.53 µM (inactive)	2.71 µM (inactive)	0.561 µM (active)
COC(=O)C(Cc1c[nH]c2ccccc12)NC(=O)C(Cc1c[nH]c2ccccc12)NC(=O)C(Cc1c[nH]c2ccccc12)NC(=O)C(Cc1c[nH]c2ccccc12)NC(=O)C(Cc1c[nH]c2ccccc12)NC(=O)C(Cc1c[nH]c2ccccc12)NC(=O)OC(C)(C)C (stereo not given) (Boc-WWWWWW-OMe; configuration not given here)	46 µM (inactive)	> 100 µM (inactive)	41.6 µM (inactive)	82.4 µM (inactive)	64 µM (inactive)	> 10 µM (inactive)	36.9 µM (inactive)	38.1 µM (inactive)	52.5 µM (inactive)	> 100 µM (inactive)			> 100 µM (inactive)	> 100 µM (inactive)			32 µM (inactive)	33 µM (inactive)	> 100 µM (inactive)	
